PubChem BioAssay (NCI)
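Grown in 96-well plates, cells were treated for 48 hours with each compound at five concentrations. Insufficient inhibition: endpoint recorded as highest concentration tested. TGI: concentration producing complete growth inhibition.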

Assays:
Assay in all cases: DTP human tumour cell line panel, 48 h
T-47D breast = system: T-47D breast
SN12C renal = system: SN12C renal
MALME-3M melanoma = system: MALME-3M melanoma
NCI-H460 lung = system: NCI-H460 lung
HCC-2998 colon = system: HCC-2998 colon
SK-OV-3 ovarian = system: SK-OV-3 ovarian
UACC-257 melanoma = system: UACC-257 melanoma
NCI-H226 lung = system: NCI-H226 lung
OVCAR-8 ovarian = system: OVCAR-8 ovarian
HT29 colon = system: HT29 colon
MDA-MB-231 breast = system: MDA-MB-231 breast
786-0 renal = system: 786-0 renal
OVCAR-3 ovarian = system: OVCAR-3 ovarian
SK-MEL-2 melanoma = system: SK-MEL-2 melanoma
HCT-116 colon = system: HCT-116 colon
SF-268 CNS = system: SF-268 CNS
SNB-19 CNS = system: SNB-19 CNS
K-562 leukemia = system: K-562 leukemia
CAKI-1 renal = system: CAKI-1 renal
SNB-75 CNS = system: SNB-75 CNS
MDA-N = system: MDA-N
A549 NSCLC = system: A549 NSCLC
M14 melanoma = system: M14 melanoma
OVCAR-4 ovarian = system: OVCAR-4 ovarian
A498 renal = system: A498 renal
MOLT-4 leukemia = system: MOLT-4 leukemia
MCF7 breast = system: MCF7 breast
CCRF-CEM leukemia = system: CCRF-CEM leukemia
COLO 205 colon = system: COLO 205 colon
ACHN renal = system: ACHN renal
MDA-MB-435 = system: MDA-MB-435
PC-3 prostate = system: PC-3 prostate
OVCAR-5 ovarian = system: OVCAR-5 ovarian
RPMI-8226 leukemia = system: RPMI-8226 leukemia
SK-MEL-28 melanoma = system: SK-MEL-28 melanoma
U251 CNS = system: U251 CNS
UO-31 renal = system: UO-31 renal
NCI/ADR-RES ovarian = system: NCI/ADR-RES ovarian
SF-539 CNS = system: SF-539 CNS
NCI-H23 lung = system: NCI-H23 lung
DU-145 prostate = system: DU-145 prostate
SF-295 CNS = system: SF-295 CNS
UACC-62 melanoma = system: UACC-62 melanoma
BT-549 breast = system: BT-549 breast
KM12 colon = system: KM12 colon
EKVX NSCLC = system: EKVX NSCLC
HCT-15 colon = system: HCT-15 colon
HOP-62 NSCLC = system: HOP-62 NSCLC
SW-620 colon = system: SW-620 colon
HS 578T breast = system: HS 578T breast
TK-10 renal = system: TK-10 renal
HL-60(TB) leukemia = system: HL-60(TB) leukemia
NCI-H522 lung = system: NCI-H522 lung
IGROV1 ovarian = system: IGROV1 ovarian
SK-MEL-5 melanoma = system: SK-MEL-5 melanoma
LOX IMVI melanoma = system: LOX IMVI melanoma
RXF 393 renal = system: RXF 393 renal
HOP-92 NSCLC = system: HOP-92 NSCLC

Measured: TGI

C=CCNC(NCC=C)=C(C(Cl)=C(Cl)Cl)[N+](=O)[O-]
54 µM: HS 578T breast
54.3 µM: K-562 leukemia
55.7 µM: SW-620 colon
31.2 µM: OVCAR-8 ovarian
32.9 µM: HCT-15 colon
71.7 µM: SF-539 CNS
83.4 µM: BT-549 breast
37.2 µM: COLO 205 colon
30.7 µM: MALME-3M melanoma
87.9 µM: MOLT-4 leukemia
not listed: TK-10 renal | HL-60(TB) leukemia | NCI-H522 lung | IGROV1 ovarian | SK-MEL-5 melanoma | LOX IMVI melanoma | RXF 393 renal | HOP-92 NSCLC
> 100 µM: all other assays above

Cc1cc2c(cc1Cl)SC(NNC(=O)c1ccncc1)=NS2(=O)=O
not listed: MCF7 breast | UO-31 renal | HOP-92 NSCLC
> 10 µM: all other assays above

CC(C(O)c1ccccc1)N(C)/N=N/c1nc2c([nH]1)c(=O)n(C)c(=O)n2C (stereo unspecified)
not listed: A498 renal | SF-539 CNS | NCI-H522 lung | LOX IMVI melanoma | HOP-92 NSCLC
> 100 µM: all other assays above

COc1ccc(-c2cc(=O)c3c(O)c(OC)c(O)cc3o2)cc1O
> 52.7 µM: 786-0 renal | K-562 leukemia
40.9 µM: MCF7 breast
20.7 µM: MOLT-4 leukemia
32.4 µM: HCT-116 colon
31.4 µM: UACC-62 melanoma
18.6 µM: KM12 colon
> 43.5 µM: SK-MEL-2 melanoma
9.53 µM: NCI-H522 lung
60 µM: SNB-75 CNS
> 75 µM: M14 melanoma
> 90.8 µM: NCI-H226 lung
> 85.5 µM: BT-549 breast
14.2 µM: HL-60(TB) leukemia
59.6 µM: COLO 205 colon
> 25.8 µM: MALME-3M melanoma
> 61.8 µM: HT29 colon
21.9 µM: SF-539 CNS
65.8 µM: A498 renal
> 85.9 µM: HOP-92 NSCLC
> 88.1 µM: PC-3 prostate
43.6 µM: NCI-H460 lung
> 23.6 µM: RPMI-8226 leukemia
> 73.2 µM: CAKI-1 renal
> 21.2 µM: NCI/ADR-RES ovarian
32.7 µM: LOX IMVI melanoma
> 93.8 µM: SK-OV-3 ovarian
> 31.8 µM: CCRF-CEM leukemia
> 87.1 µM: EKVX NSCLC
40.2 µM: IGROV1 ovarian
14.9 µM: SK-MEL-5 melanoma
> 64.8 µM: RXF 393 renal
87.3 µM: HS 578T breast
> 100 µM: all other assays above
